Reference: paper PMC12810539, “EGFR-targeted gadolinium contrast agents for enhanced molecular magnetic resonance imaging of tumors” (The Journal of Biological Chemistry, 2025)

Columns and labels:
[1] = Longitudinal and transverse relaxivity at 3T MRI; type: physicochemical; details: in water, 37 °C, slope of 1/T1 versus Gd concentration (0-0.5 mM)
Procedure: The EBP-Gd-DO3A and EBP-(Gd-DO3A)3 conjugates were confirmed by matrix-assisted laser desorption/ionization time-of-flight (MALDI-TOF) mass spectrometry (Applied Biosystems) in a linear mode with 2,5-dihydroxybenzoic acid (2,5-DHB) as the matrix. The Gd content in the conjugates was determined by ICP-MS (Thermo Fisher Scientific) ([31]). […] Serial dilutions of EBP-Gd-DO3A, EBP-(Gd-DO3A)3, and Gadovist were prepared in water at Gd concentrations of 0.5, 0.25, 0.125, 0.0625, 0.03125, and 0 mM. The relaxivity measurements were performed on a 3T MRI scanner (Trio, Siemens). T1 was measured using an inversion recovery method with a variable inversion time ranging from 50 to 1750 ms. T2 was measured using a Carr-Purcell-Meiboom-Gill sequence with 500 echoes collected. The relaxivities (r1 and r2) of the agents were calculated from the slopes of the plots of 1/T1 and 1/T2 versus the Gd concentrations.

EGFR = target: T1, EGFR (Homo sapiens, UniProt P00533); assay: EGFR inhibition assay (competitive cell binding with anti-EGFR antibody C225); type: cell-based; details: all tested cell lines, 5 μg/ml C225 preincubation 12 h, then 50 μM Gd for 1 h, ICP-MS
T1 construct: endogenous in cells; host or cells: MDA-MB-231, A549, SGC-7901, SW480, U138 MG (human tumour cell lines, CCTCC)
Procedure: To further verify the receptor-binding affinity and specificity of EBP-Gd-DO3A and EBP-(Gd-DO3A)3, a competitive cell-binding assay was carried out. MDA-MB-231, A549, SGC-7901, SW480, and U138 MG cells were preincubated with fresh serum-free medium containing 5 μg/ml anti-EGFR monoclonal antibody C225 (ImClone Systems, Inc., New York, NY) for 12 h at 37 °C. The culture supernatant was removed from the resulting solution, followed by the addition of EBP-Gd-DO3A, EBP-(Gd-DO3A)3, or Gadovist at a Gd concentration of 50 μM for the indicated time points. The cellular Gd content was measured by ICP-MS as described above, and the C225-induced reduction in the cellular Gd accumulation was used to calculate an inhibition index of cellular Gd uptake ([34]).

[2] = system: MDA-MB-231, A549, SGC-7901, SW480 and U138 MG cells; assay: In vitro MR imaging of labelled tumor cells, with and without C225; type: cell-based, human; details: for MRI signal of cells pretreated with versus without C225: C225 preincubation 12 h, then 50 μM Gd for 24 h, all tested cell lines; for MR enhancement effect in MDA-MB-231, A549, SGC-7901 and SW480 tumor cells / MR enhancement effect in U138MG cell line: 37 °C, 11.7 T MR microimaging of cell pellets
Procedure: For the in vitro MRI assay, MDA-MB-231, A549, SGC-7901, SW480, and U138 MG cells were seeded into 100 mm × 20 mm cell culture dishes at a density of approximately 1 × 10^6 cells per dish and incubated with EBP-Gd-DO3A, EBP-(Gd-DO3A)3 or Gadovist at a Gd concentration of 50 μM for 24 h at 37 °C. After the completion of the labelling, the cells were washed with PBS 3 times and collected into 1.5 mm-i.d. capillary tubes that were centrifuged at 1400 rpm for 5 min to enable cells to be well packed in the bottom of the capillary for the MRI. The in vitro MRI experiments were performed on an 11.7 T Bruker NMR spectrometer that functioned as an MR microimaging system with a maximum gradient strength of 1.0 T/m. A linear 15-mm-i.d birdcage coil was used for radiofrequency transmission and signal reception. The parameters used for acquiring images were TR = 500 ms, TE = 5.2 ms, FOV = 12 × 12 mm^2, matrix = 96 × 96, flip angle = 90°, slice thickness/gap = 0.8/0.2 mm and number of averages = 4.
The C225-preincubated cells described above were imaged with MRI to observe the contrast enhancement effects. The method used for the MR imaging of cell pellets was the same as that for the in vitro MR imaging of the conjugates described above.

[3] = In vivo biodistribution: plasma, kidney, liver, heart (ICP-MS); parameters: species or system SCID mice; details: for Gd content in the kidneys / plasma Gd level over time: tumor-bearing SCID mice, ICP-MS; for Gd content in the kidneys: mean ± SD, 6 animals per group; for plasma Gd level over time: 0.25-48 h
Procedure: (§1) The 6- to 8-week-old male non-obese diabetic (NOD)/severe-combined immunodeficient (SCID) mice were used to establish MDA-MB-231 (EGFR-overexpressing) and U138 MG (non-EGFR-overexpressing) xenograft models ([35]). The mice were obtained from the Experimental Animal Center of Tongji Medical College, Huazhong University of Science and Technology, and all the experimental procedures involving animals were further approved by the Animal Care and Use Committee of Huazhong University of Science and Technology. The mice were housed separately in polycarbonate cages and provided with food and water. Tumors were grown under the skin by s.c. injection of 1 × 10^6-3 × 10^6 cells. The mice were randomized into groups for the biodistribution assay and MR imaging in vivo when the xenografts reached 5 to 7 mm in diameter. All procedures were approved by the Institutional Animal Care and Use Committee of Huazhong University of Science and Technology (approval no.270193).
(§2) The tumor-bearing SCID mice were randomly divided into groups, with 6 animals in each group, an injected via the tail vein with 50 μM Gd/kg EBP-Gd-DO3A, EBP-(Gd-DO3A)3, or Gadovist. At the selected time points (0.25, 0.5, 1, 2, 4, 8, 24, and 48 h) after injection, blood was collected and centrifuged to separate the plasma. Then, organ and tissue samples, including the kidneys, liver, heart, and tumor, were collected and weighed. The tissue samples were liquefied for 1 week and then transferred into centrifuge tubes and centrifuged at 14,000 rpm for 5 min. The resulting supernatants were diluted tenfold with deionized water and centrifuged again under the same conditions. The Gd concentration in the samples was measured by ICP-MS ([36]).

[4] = system: MDA-MB-231 tumor xenografts; assay: In vivo biodistribution: tumor Gd content (ICP-MS); details: SCID mice, mean ± SD; for Gd content in the MDA-MB-231 tumor tissues (peak): 4 h after single i.v. 50 μM Gd/kg
Procedure: as §1, §2

[5] = 0.5 h after single i.v. 50 μM Gd/kg
[6] = 2 h after single i.v. 50 μM Gd/kg
[7] = 24 h after single i.v. 50 μM Gd/kg

Row | cellular Gd accumulation with versus without C225 pretreatment (EGFR) | Gd content in the kidneys [3, 5] [nM/g tissue] | Gd retention in the liver and heart ([3]; single i.v. 50 μM Gd/kg, compared with EBP-Gd-DO3A and EBP-(Gd-DO3A)3, ICP-MS) | Gd content in the MDA-MB-231 tumor tissues [4, 5] [nM/g tissue] | Gd content in the MDA-MB-231 tumor tissues [4, 6] [nM/g tissue] | Compound | longitudinal relaxivity (r1) [1] [mM⁻¹ s⁻¹] | T1 signal intensity in cells with different levels of EGFR expression ([2]; 50 μM Gd, 24 h, ROI analysis, p > 0.05) | MRI signal of cells pretreated with versus without C225 [2] | Gd content in the kidneys [3, 6] [nM/g tissue] | Gd content in the kidneys [3, 7] [nM/g tissue] | plasma Gd level over time ([3]; single i.v. 50 μM Gd/kg) | Gd content in the MDA-MB-231 tumor tissues [4, 7] | MR enhancement effect in MDA-MB-231, A549, SGC-7901 and SW480 tumor cells ([2]; 50 μM Gd, 24 h) | MR enhancement effect in U138MG cell line ([2]; 50 μM Gd, 24 h) | Gd content in the kidneys ([3]; 8 h after single i.v. 50 μM Gd/kg) [nM/g tissue] | Gd content in the MDA-MB-231 tumor tissues (peak) [4] [nM/g tissue] | Gd content in the kidneys ([3]; 4 h after single i.v. 50 μM Gd/kg) [nM/g tissue]
1 | No significant difference | 10.70 ± 2.10 | relatively high at all time points | 3.36 ± 0.91 | 1.26 ± 0.46 | O=C([O-])CN1CCN(CC(=O)[O-])CCN([C@H](CO)[C@H](O)CO)CCN(CC(=O)[O-])CC1.[Gd+3] (racemic) [Gadovist, reference compound] | 3.14 | not significantly different | no significant difference | 8.73 ± 1.37 | 1.58 ± 0.72 | rapidly disappeared from circulation | no detectable Gd |  |  |  |  | 
2 | reduced |  |  |  |  | CMYIEALDKYAC [EBP-(Gd-DO3A)3] | 7.24 |  | reduced | 12.40 ± 1.60 | 3.50 ± 1.40 | maintained at a high level for a much longer time | 19.42 ± 1.76 nM/g tissue | strong enhancement effects | much weaker enhancement effect | 8.12 ± 1.28 | 30.70 ± 1.90 | 
3 | reduced |  |  |  |  | CMYIEALDKYAC [EBP-Gd-DO3A] | 5.08 |  | reduced | 10.76 ± 1.14 | 2.52 ± 0.68 | maintained at a high level for a much longer time | 9.95 ± 1.85 nM/g tissue | strong enhancement effects | much weaker enhancement effect |  | 17.70 ± 2.10 | 8.25 ± 0.75
